6 compounds from paper PMC4310094, “FXR antagonism of NSAIDs contributes to drug-induced liver injury identified by systems pharmacology approach” (Scientific Reports, 2015) can be followed below.

One data set relates to STAT3. Briefly: Western blot of STAT3 phosphorylation in HepG2 cells. It counts as cell-based. The following applies: Figure 6A. The procedure: (§1) In subsequent experiments, we further investigated whether NSAIDs could induce STAT3 activation and suppress the expression of caspase9. […] The phosphorylated STAT3 was determined by western blot analysis. […] For STAT3 phosphorylation and caspase9 expression analysis, HepG2 cells were seeded in 6-well plates and then treated with varied compounds in serum-free DMEM media. After 24 h incubation, cells were washed twice with ice-cold phosphate buffered saline (PBS) and lysed in RIPA buffer including 5 mM NaF, 1 mM PMSF, 2 mM NaVO4 and protease inhibitor cocktail. Lysates were then centrifuged at 10,000 rpm for 10 min at 4°and the protein concentrations were determined by BCA assay. Whole cell extracts was resolved on 10% SDS-PAGE and transferred to polyvinylidene fluoride (PVDF) membrane. The membrane was blotted with antibodies against p-STAT3, total-STAT3, caspase9 and GAPDH, and then examined by ECL detection system according to the manufacturer's instructions (Amersham Pharmacia Biotech).

For a further data set, the system named is caspase9. Description: Western blot of caspase9 in HepG2 cells. It counts as cell-based. Particulars: Figure 6B. The procedure: as §1
Data set [1] addresses T1, Farnesoid X Receptor (FXR) (Homo sapiens, UniProt Q96RI1).
T1 construct: Human FXRα-LBD (amino acids 200–473); expressed in transfected cells; host or cells: yeast strain AH109
T1 sequence (Q96RI1 214-486): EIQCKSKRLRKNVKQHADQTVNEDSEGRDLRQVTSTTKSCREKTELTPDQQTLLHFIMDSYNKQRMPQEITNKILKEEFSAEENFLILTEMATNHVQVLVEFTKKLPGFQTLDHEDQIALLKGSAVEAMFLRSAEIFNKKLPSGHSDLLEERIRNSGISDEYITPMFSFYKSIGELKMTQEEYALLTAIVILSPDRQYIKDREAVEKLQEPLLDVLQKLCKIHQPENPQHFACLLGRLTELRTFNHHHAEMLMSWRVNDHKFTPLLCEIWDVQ
Description: Yeast two-hybrid assay, hFXR agonist testing (FXR-LBD/SRC1 interaction, α-galactosidase). Particulars: DMSO = 1. It counts as cell-based. From the text:
(§2) Yeast two-hybrid system is a powerful tool for identifying potential agonist or antagonist of nuclear receptor based on the protein-protein interaction between nuclear receptor and its transcriptional co-activator[34]. Based on the predicted results through our systems pharmacology approach, the yeast two-hybrid system was set up according to a previous study[35] to test whether NSAIDs can modulate the activation of FXR. A series of NSAIDs with diverse chemical structures were collected and experimentally evaluated for their effects on the interaction between FXR and its co-activator SRC1. […] The previous studies reported an immune-mediated mechanism that is related to liver toxicity induced by oxicams and coxibs.
(§3) The yeast expression plasmids pGADT7 and pGBKT7 were from Clontech (Palo Alto, CA). Human FXRα-LBD (amino acids 200–473) was subcloned into vector pGBKT-7 using NdeI and BamHI restrict enzyme sites. The primers used for PCR amplification were listed as follows: FXRα-LBD (sense) 5′-[…]-3′, (anti-sense) 5′-[…]-3′. The combination plasmid pGADT7-SRC1 was prepared as described previously. The luciferase reporter plasmid pGL3-FXRE-Luc was generously donated by Dr. Majlis Hermansson (AstraZeneca R&D Mölndal, Sweden).
(§4) A yeast two-hybrid system for FXRα was constructed by yeast co-transformation with pGBKT7-FXR LBD and pGADT7-SRC1 according to manufacturer's protocols. […] 24 h later, we harvested the yeast cells and analyzed α-galactosidase activity using p-nitrophenyl α-D-galactopyranoside as the substrate.

Data set [2] addresses T1, Farnesoid X Receptor (FXR). Description: Yeast two-hybrid assay, FXR antagonist testing (compounds plus 10 μM CDCA). It counts as cell-based. Particulars: for pIC50: hFXR-LBD/SRC1, determined if inhibition at 10 μM > 50%.
Description: as §2, §3, §4

A further data set has as its system SHP. Description: qRT-PCR of FXR target gene SHP in HepG2 cells.

pIC50: −log10 of the molar value.

Description for SHP: The mRNA levels of the FXR target genes were quantified by qRT-PCR.
The data were carried out in at least three independent experiments.
HepG2 cells were cultured at 37°C in DMEM media supplemented with 10% FBS. And then cells were seeded into 6-well plates and grew to 80–90% confluence. After incubation with the test compounds for 24 h, cells were harvested and total RNA was isolated using Trizol reagent. The first single-strand cDNA was synthesized using reverse transcriptase kit. The qRT-PCR was performed using Bio-Rad CFX96^TM real time PCR system according to the manufacturer's instruction with specific primers for the FXR target gene SHP (forward 5′-[sequence]-3′, reverse 5′-[sequence]-3′), CYP7A1 (forward 5′- [sequence]-3′, reverse 5′- [sequence]-3′) for detection of the transcripts. Transcription levels were normalized to GAPDH mRNA levels (forward 5′- [sequence]-3′, reverse 5′- [sequence]-3′). The relative RNA quantities were calculated using the comparative threshold cycles (Ct) method. The Ct for the SHP, CYP7A1 and GAPDH signals were determined in triplicate experiments.

`C[C@H](CCC(=O)O)[C@H]1CC[C@H]2[C@@H]3[C@H](O)C[C@@H]4C[C@H](O)CC[C@]4(C)[C@H]3CC[C@]12C` [CDCA, chenodeoxycholic acid]: in the data set on STAT3 (CDCA pretreatment), the “effect on indomethacin-induced STAT3 activation” value is “suppresses indomethacin-induced STAT3 activation”. For the same compound, the “caspase9 levels on co-treatment with indomethacin” value in the data set with caspase9 (co-treated with indomethacin and CDCA) is “substantially attenuated back to the normal level”.

For the compound `O=C(O)c1cc(-c2ccc(F)cc2F)ccc1O` [Diflunisal], the “FXR activation (10 μM)” value in data set [1] is recorded as 1.31. Further, the inhibition at 10 µM in data set [2] is 93.3%. For the same compound, the pIC50 in data set [2] (yeast two hybrid) was 5.07.

For `COc1ccc2c(c1)c(CC(=O)O)c(C)n2C(=O)c1ccc(Cl)cc1` [Indomethacin], the STAT3 phosphorylation level result with STAT3 (western blot) was “significantly increases the STAT3 phosphorylation level”. Also, in the data set on caspase9 (western blot), the caspase9 expression result is given as “significantly stimulates caspase9 expression in a dose-dependent manner”. Moreover, the “biological activity on genes SHP and CYP7A1 compared with ibuprofen” value in the data set on SHP was “higher biological activity than ibuprofen”.

Consider `CCCCC1C(=O)N(c2ccccc2)N(c2ccccc2)C1=O` [Phenylbutazone], for which the “FXR activation (10 μM)” value in data set [1] is on record as 0.99. For the same compound, the inhibition at 10 µM in data set [2] stood at 91.9%. Moreover, in data set [2] (yeast two hybrid), the “FXR antagonist potency compared with guggulsterones (GS)” value is on record as “more potent FXR antagonist than guggulsterones” and the pIC50 is 6.15.

As to `CN1C(C(=O)Nc2ccccn2)=C(O)c2ccccc2S1(=O)=O` [Piroxicam], the “FXR activation (10 μM)” value in data set [1] is 1.13. Further, the inhibition at 10 µM in data set [2] came out at 30.7%. Besides, the pIC50 in data set [2] (yeast two hybrid) is below 4.60.

Consider `CS(=O)(=O)c1ccc(C2=C(c3ccccc3)C(=O)OC2)cc1` [Rofecoxib], for which the “FXR activation (10 μM)” value in data set [1] came to 1.18. In addition, the inhibition at 10 µM in data set [2] worked out at 39.9%. Also, the pIC50 in data set [2] (yeast two hybrid) is below 4.60.
